# Reference: patent US10065924B2, “Preparation and biological evaluation of viridicatumtoxin analogs” (priority 2014, dated 2018)
# Experiments:
# [1] = system: Enterococcus faecalis S613; assay: Micro-broth MIC assay, E. faecalis S613; type: cell-based; conditions: for Minimum Inhibitory Concentration (MIC) E. faecalis S613: Gram-(+), clinical strain, triplicate, no growth after 16-24 hours at 37° C.; for MIC: Enterococcus faecalis, S613, read-out: Minimum Inhibitory Concentration (MIC) E. faecalis S613
# Protocol: (§1) Four clinical strains were used for these studies, Enterococcus faecalis S613, Enterococcus faecium isolate 105, Methicillin-Resistant Staphylococcus aureus 371 (MRSA 371) and Acinetobacter baumannii AB210. Enterococcus strains were cultured in 80% Lysogeny Broth (LB) & 20% Brain Heart Infusion (BHI). MRSA 371 and AB210 were cultured in 100% LB.
# (§2) Micro-broth MIC assays were performed in triplicate using 96-well plates. Wells were filled with 150 μL of broth media and inoculated with 2 μL of stationary phase culture. The concentration of the test antibiotics increased in 2-fold increments and ranged from 0.25-128 μg/mL. Plates were incubated overnight at 37° C. and the MICs were defined as the lowest drug concentration that had no growth after 16-24 hours.
# E. faecium 501 = assay: Micro-broth MIC assay, E. faecium 501; type: cell-based, Enterococcus faecium; conditions: Gram-(+), clinical strain, triplicate, no growth after 16-24 hours at 37° C.; for MIC: Enterococcus faecium, 501, read-out: Minimum Inhibitory Concentration (MIC) E. faecium 501
# [2] = system: Methicillin-Resistant Staphylococcus aureus 371 (MRSA 371); assay: Micro-broth MIC assay, MRSA 371; type: cell-based; conditions: for Minimum Inhibitory Concentration (MIC) MRSA 371: Gram-(+), clinical strain, triplicate, no growth after 16-24 hours at 37° C.; for MIC: Staphylococcus aureus, MRSA, read-out: Minimum Inhibitory Concentration (MIC) MRSA 371
# Protocol: as §1, §2
# [3] = system: Acinetobacter baumannii AB210; assay: Micro-broth MIC assay, A. baumannii AB210; type: cell-based; conditions: for Minimum Inhibitory Concentration (MIC) A. baumannii AB210: Gram-(−), clinical strain, triplicate, no growth after 16-24 hours at 37° C.; for MIC: Acinetobacter baumannii, AB210, read-out: Minimum Inhibitory Concentration (MIC) A. baumannii AB210
# Protocol: as §1, §2
Compound,Minimum Inhibitory Concentration (MIC) E. faecalis S613 [1],Minimum Inhibitory Concentration (MIC) E. faecium 501 (E. faecium 501),Minimum Inhibitory Concentration (MIC) MRSA 371 [2],Minimum Inhibitory Concentration (MIC) A. baumannii AB210 [3],MIC [1],MIC (E. faecium 501),MIC [2],MIC [3]
"COc1cc(O)c2c(O)c3c(c4c2c1[C@]1(C4)C(C)=CCCC1(C)C)[C@H](O)[C@@]1(O)CC(=O)C(C(N)=O)=C(O)[C@@]1(O)C3=O [(+)-2, viridicatumtoxin A]",1 µg/mL,1 µg/mL,4 µg/mL,64 µg/mL,–,–,–,–
COc1cc(O)c2c(O)c3c(c4c2c1[C@]1(C4)C(C)=CCCC1(C)C)C(=O)[C@H]1CC(O)=C(C(N)=O)C(=O)[C@@]1(O)C3=O (racemic) [(±)-V2],–,–,–,–,0.5 µg/mL,0.5 µg/mL,2 µg/mL,64 µg/mL
COc1cc(O)c2c(O)c3c(c4c2c1[C@]1(C4)C(C)=CCCC1(C)C)[C@@H](O)[C@H]1CC(O)=C(C(N)=O)C(=O)[C@@]1(O)C3=O (racemic) [(±)-V6],–,–,–,–,0.5 µg/mL,0.5 µg/mL,2 µg/mL,64 µg/mL
"viridicatumtoxin B [(±)-1, reference compound]",1 µg/mL,0.5 µg/mL,4 µg/mL,64 µg/mL,–,–,–,–
COc1cc(OC)c2c(O)c3c(c4c2c1[C@@]1(C4)C(C)=CCCC1(C)C)C(=O)[C@H]1CC(O)=C(C(N)=O)C[C@@]1(O)C3=O (racemic) [(±)-V4],–,–,–,–,4 µg/mL,4 µg/mL,4 µg/mL,64 µg/mL
COc1cc(O)c2c(O)c3c(c4c2c1[C@@]1(C4)C(C)=CCCC1(C)C)C(=O)[C@H]1CC(O)=C(C(N)=O)C[C@@]1(O)C3=O (racemic) [(±)-V3],–,–,–,–,4 µg/mL,2 µg/mL,8 µg/mL,64 µg/mL
COc1cc(O)c2c(O)c3c(c4c2c1[C@]1(C4)C(C)=CCCC1(C)C)[C@H](O)[C@H]1CC(O)=C(C(N)=O)C(=O)[C@@]1(O)C3=O (racemic) [(±)-V5],–,–,–,–,1 µg/mL,1 µg/mL,8 µg/mL,64 µg/mL
